Measurements taken from US10662195B2, “Protein kinase conjugates and inhibitors” (Celgene Avilomics Research, Inc., priority 2009, dated 2020).
pIC50: −log10 of the molar value.

Assays:
[1] = target: T1, FAK (Homo sapiens, UniProt Q05397); test: FAK biochemical assay (OMNIA kinase assay, pre-activated FAK); conditions: FAK=15 nM, ATP=100 μM, 30 min pre-incubation
T1 construct: purchased Invitrogen (Madison, Wis.) M4446
Method: Activities of FAK inhibitors were assessed in an OMNIA® kinase assay (Invitrogen, Carlsbad, Calif.) using pre-activated FAK enzyme. Briefly, a 10× stock of pre-activated FAK enzyme (M4446) from Invitrogen (Madison, Wis.), 1.13×ATP (AS001A) and Y3-Sox conjugated peptide substrate (YP003A) were prepared in 1× kinase reaction buffer consisting of 20 mM Tris, pH 7.5, 5 mM MgCl2, 1 mM EGTA, 5 mM β-glycerophosphate, 5% glycerol (10× stock, KB002A) and 0.2 mM DTT (DS001A). 5 μL of enzyme were pre-incubated in a Corning (#3574) 384-well, white, non-binding surface microtiter plate (Corning, N.Y.) for 30 min at 27° C. with a 0.5 μL volume of 50% DMSO and serially diluted compounds prepared in 50% DMSO. Kinase reactions were started with the addition of 45 μL of ATP/Y3-Sox peptide substrate mix and monitored every 30-90 seconds for 60 minutes at λex360/λem485 in a Synergy^4 plate reader from BioTek (Winooski, Vt.). […] Initial velocity (0 minutes to ˜30 minutes) from each reaction was determined from the slope of a plot of relative fluorescence units vs time (minutes) and then plotted against inhibitor concentration to estimate IC50 from log [Inhibitor] vs Response, Variable Slope model in GraphPad Prism from GraphPad Software (San Diego, Calif.). […]

[2] = target: FAK (PTK2) (Homo sapiens, UniProt Q05397); test: Mass spectral analysis of intact FAK after incubation with compound; format: binding; conditions: 1 hr, 10× excess of compound to protein; for modification of FAK (PTK2) by compound, mass spec: intact protein MALDI
Method: Intact FAK (PTK2) was incubated for 1 hr at a 10× fold access of compound IV-29 to protein. 3 ul aliquots of the samples were diluted with 10 ul of 0.1% TFA prior to micro C4 ZipTipping directly onto the MALDI target using Sinapinic acid as the desorption matrix (10 mg/ml in 0.1% TFA:Acetonitrile 50:50). Mass spec analysis was run on intact FAK (PTK2) protein (m/z 146,672 Da), and on FAK that was incubated with compound IV-29 (mw=669.2).

[3] = test system: CKIT; test: cKIT washout assay in GIST882 cells (C-kit phosphorylation, western blot); format: cell-based
Method: GIST882 cells (See, Bauer et al., Cancer Research, 66(18):9153-9161 (2006)) were seeded in a 6 well plate at a density of 8×10^5 cells/well in complete media. The next day cells were treated with 1 uM compound diluted in complete media for 90 minutes. After 90 minutes, the media was removed and cells were washed with compound-free media. Cells were washed every 2 hours and resuspended in fresh compound-free media. Cells were collected at specified time points, lysed in Cell Extraction Buffer (Invitrogen FNN0011) supplemented with Roche complete protease inhibitor tablets (Roche 11697498001) and phosphatase inhibitors (Roche 04 906 837 001) and lysates were sheared by passing through a 28.5 gauge syringe 10 times each. Protein concentrations were measured and 10 ug total protein lysate was loaded in each lane. C-kit phosphorylation was assayed by western blot with pTyr (4G10) antibody and total kit antibody from Cell Signaling Technology.
Sorafenib and XVIII-11 were tested for cellular activity in a GIST882 cell line at 1 micromolar. The results are depicted in FIGS. 2a and 2b where it is shown that XVIII-11 maintained c-KIT enzyme inhibition in […] cells after “washout” for at least 8 hours. […] In order to understand whether there was a prolonged inhibition with the irreversible inhibitor the cells were washed free of compound. For the reversible inhibitor, Sorafenib, the inhibitory activity of cKIT and downstream signaling was overcome whereas the irreversible inhibition of XVIII-11 persisted for at least 8 hours.

[4] = test system: ERK; test: cKIT washout assay, downstream signaling (ERK phosphorylation); format: cell-based; conditions: GIST882 cell line, 1 micromolar, 90 minutes
Method: The next day cells were treated with 1 uM compound diluted in complete media for 90 minutes. After 90 minutes, the media was removed and cells were washed with compound-free media. Cells were washed every 2 hours and resuspended in fresh compound-free media. […] Protein concentrations were measured and 10 ug total protein lysate was loaded in each lane. C-kit phosphorylation was assayed by western blot with pTyr (4G10) antibody and total kit antibody from Cell Signaling Technology.
Sorafenib and XVIII-11 were tested for cellular activity in a GIST882 cell line at 1 micromolar. The results are depicted in FIGS. 2a and 2b where it is shown that XVIII-11 maintained c-KIT enzyme inhibition in […] cells after “washout” for at least 8 hours. […] In order to understand whether there was a prolonged inhibition with the irreversible inhibitor the cells were washed free of compound.

Sequence of FAK (PTK2) (Q05397 whole entry): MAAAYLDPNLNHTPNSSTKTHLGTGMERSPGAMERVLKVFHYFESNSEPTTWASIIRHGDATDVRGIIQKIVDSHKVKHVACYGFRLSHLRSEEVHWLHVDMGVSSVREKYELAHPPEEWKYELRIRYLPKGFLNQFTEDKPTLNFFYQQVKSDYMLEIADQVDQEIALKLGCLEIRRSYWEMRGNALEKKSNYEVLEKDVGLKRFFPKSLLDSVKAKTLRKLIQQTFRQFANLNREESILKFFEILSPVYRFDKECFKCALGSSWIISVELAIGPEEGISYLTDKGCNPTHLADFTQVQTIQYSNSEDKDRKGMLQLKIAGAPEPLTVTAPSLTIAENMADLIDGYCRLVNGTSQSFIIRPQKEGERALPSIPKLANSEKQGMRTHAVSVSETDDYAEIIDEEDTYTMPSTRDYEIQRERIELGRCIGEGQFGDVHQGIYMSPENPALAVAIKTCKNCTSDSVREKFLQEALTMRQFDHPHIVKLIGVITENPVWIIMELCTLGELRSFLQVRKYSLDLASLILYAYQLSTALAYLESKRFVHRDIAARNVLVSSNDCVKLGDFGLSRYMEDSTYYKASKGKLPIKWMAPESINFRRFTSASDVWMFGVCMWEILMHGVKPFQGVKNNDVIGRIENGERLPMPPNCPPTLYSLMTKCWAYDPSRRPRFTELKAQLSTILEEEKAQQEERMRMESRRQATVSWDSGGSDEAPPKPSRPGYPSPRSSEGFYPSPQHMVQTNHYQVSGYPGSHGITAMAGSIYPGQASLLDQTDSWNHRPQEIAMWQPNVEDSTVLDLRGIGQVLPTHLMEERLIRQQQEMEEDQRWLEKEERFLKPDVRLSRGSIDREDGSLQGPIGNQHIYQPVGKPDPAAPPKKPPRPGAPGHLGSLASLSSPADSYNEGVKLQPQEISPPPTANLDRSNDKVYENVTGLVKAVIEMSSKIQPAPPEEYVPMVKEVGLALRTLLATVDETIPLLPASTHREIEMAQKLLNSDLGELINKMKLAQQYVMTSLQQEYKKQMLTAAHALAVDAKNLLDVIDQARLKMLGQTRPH
T1 sequence (Q05397 whole entry): as above

| pIC50 [1] | positive shift of centroid mass of FAK [2] | modification of FAK (PTK2) by compound, mass spec [2] | Structure (SMILES) | inhibitory activity of cKIT and downstream signaling after washout ([3]; 1 uM for 90 minutes, then washed free of compound) | inhibition of cKIT autophosphorylation ([3]; GIST882 cell line, 1 micromolar, 90 minutes) | inhibition of downstream signaling of ERK [4] |
| --- | --- | --- | --- | --- | --- | --- |
| 8.28 | about 365 Da | almost complete modification of FAK | C=CC(=O)Nc1ccc(C(=O)NC2(C)CCN(c3ccc(Nc4ncc(Cl)c(Nc5ccccc5C(=O)NC)n4)c(OC)c3)CC2)cc1 [IV-29, 2-(2-(4-(4-(4-acrylamidobenzamido)-4-methylpiperidin-1-yl)-2-methoxyphenylamino)-5-chloropyrimidin-4-ylamino)-N-methylbenzamide] |  |  |  |
| 8.23 |  | did not modify FAK | C=CC(=O)N1CCC2(CCCN(c3ccc(Nc4ncc(Cl)c(Nc5ccccc5C(=O)NC)n4)c(OC)c3)C2)CC1 [IV-30, 2-{2-[4-(9-Acryloyl-2,9-diaza-spiro[5.5]undec-2-yl)-2-methoxy-phenylamino]-5-chloro-pyrimidin-4-ylamino}-N-methyl-benzamide] |  |  |  |
|  |  |  | CNC(=O)c1cc(Oc2ccc(NC(=O)Nc3ccc(Cl)c(C(F)(F)F)c3)cc2)ccn1 [Sorafenib, sorafenib] | overcome | inhibited cKIT autophosphorylation | inhibited |
